Patent US20200108112A1, “METHOD FOR PREPARING FENUGREEK EXTRACT AND PHARMACEUTICAL COMPOSITION COMPRISING FENUGREEK EXTRACT” (PRINCE PHARMACEUTICAL CO., LTD., priority 2017, published 2020)

Tested on: HepG2 cells
Experiment: Lipid droplets formation in HepG2 cells, formula of fenugreek extract (oil red-O / MTS index)
Assay type: cell-based
Details: lipid droplets induced group = 100%; treated 16 hours, then lipid droplets induced reagent 16 hours
Method: (1) HepG2 cells were seeded at 2.5×10^4 cells/well and incubated for 24 hours. (2) The incubated cells were divided into the following groups: Control group (CG) was added with 1% DMSO to treat the HepG2 cells for 16 hours, and then treated with cell culture medium for 16 hours. Lipid droplets induced group (LDIG) was added with 1% DMSO to treat the HepG2 cells for 16 hours, and then treated with 500 nM lipid droplets induced reagent for 16 hours. […] In addition, in a preferred embodiment, Vitamin E, SiO2, MAG and Fibersol-2 ® may be additionally added as desired. Each experiment group was respectively added to treat the HepG2 cells for 16 hours, and then treated with lipid droplets induced reagent for 16 hours. [table] (3) The above groups were examined by MTS assay and oil red-O stain, and the oil red OD value/MTS OD value was used as the index of lipid droplets.

SMILES: NCCS(=O)(=O)O [experiment group 7, taurine]
- percentage of the lipid droplet formation: 72.4%
